Source: patent US20230151025A1, “SUBSTITUTED THIAZOLOPYRIDINES, SALTS THEREOF AND THEIR USE AS HERBICIDALLY ACTIVE SUBSTANCES” (Bayer Aktiengesellschaft, priority 2020, published 2023)

Key:
Assay type in all cases: in vivo
[1] = tested on: Echinochloa crus-galli (ECHCG); assay: Herbicidal post-emergence action (D), 320 g/ha; settings: ca. 3 weeks
From the text: (§1) ABUTH: Abutilon theophrasti AGSTE: Agrostis tenuis ALOMY: Alopecurus myosuroides AMARE Amaranthus retroflexus DIGSA: Digitaria sanguinalis ECHCG: Echinochloa crus-galli KCHSC: Kochia scoparia LOLRI: Lolium rigidum MATIN: Matricaria inodora POAAN: Poa annua POLCO: Polygonum convolvulus SETVI: Setaria viridis STEME: Stellaria media VERPE: Veronica persica VIOTR: Viola tricolor
(§2) Seeds of mono- and dicotyledonous weed plants and crop plants were sown, in plastic or organic planting pots, in sandy loam, covered with soil and grown in a greenhouse under controlled growth conditions. 2 to 3 weeks after sowing, the test plants were sprayed in the single-leaf stage. The compounds according to the invention, formulated in form of wettable powders (WP) or as emulsifiable concentrates (EC), were sprayed onto the green plant parts as aqueous suspension or emulsion, with the addition of 0.5% of an additive, at an application rate of 600 l of water/ha (converted). The test plants were placed in the greenhouse for ca. 3 weeks under optimum growth conditions, and then the effect of the preparations was assessed visually in comparison with untreated controls (herbicidal effect in percent (%): 100% effect=plants have died off, 0% effect=as control plants).
(§3) Tables D1 to D13 below show the effects of selected compounds of the general formula (I) according to table 1 on various harmful plants and an application rate corresponding to 320 g/ha obtained by the experimental procedure mentioned above.

Veronica persica (VERPE) [2] = assay: Herbicidal post-emergence action (D), 320 g/ha; settings: ca. 3 weeks
From the text: as §1, §2, §3

[3] = tested on: Polygonum convolvulus (POLCO); assay: Herbicidal post-emergence action (D), 320 g/ha; settings: ca. 3 weeks
From the text: as §1, §2, §3

Setaria viridis (SETVI) [4] = assay: Herbicidal post-emergence action (D), 320 g/ha; settings: ca. 3 weeks
From the text: as §1, §2, §3

[5] = tested on: Echinochloa crus-galli (ECHCG); assay: Herbicidal pre-emergence action (C), 320 g/ha; settings: ca. 3 weeks
From the text: as §1
(§4) Seeds of mono- and dicotyledonous weed plants and crop plants were sown, in plastic or organic planting pots, in sandy loam and covered with soil. The compounds according to the invention, formulated in the form of wettable powders (WP) or as emulsifiable concentrates (EC), were applied to the surface of the covering soil as aqueous suspension or emulsion, with the addition of 0.5% of an additive, at an application rate of 600 l of water/ha (converted).
(§5) Following treatment, the pots were placed in a greenhouse and kept under optimum growth conditions for the test plants. The visual grading of the damage to the test plants was carried out after ca. 3 weeks in comparison to untreated controls (herbicidal effect in percent (%): 100% effect=plants have died off, 0% effect=as control plants).
(§6) Tables C1 to C13 below show the effects of selected compounds of the general formula (I) according to table 1 on various harmful plants and an application rate corresponding to 320 g/ha obtained by the experimental procedure mentioned above.

[6] = tested on: Alopecurus myosuroides (ALOMY); assay: Herbicidal pre-emergence action (C), 320 g/ha; settings: ca. 3 weeks
From the text: as §1, §4, §5, §6

Setaria viridis (SETVI) [7] = assay: Herbicidal pre-emergence action (C), 320 g/ha; settings: ca. 3 weeks
From the text: as §1, §4, §5, §6

Lolium rigidum (LOLRI) [8] = assay: Herbicidal pre-emergence action (C), 320 g/ha; settings: ca. 3 weeks
From the text: as §1, §4, §5, §6

[9] = tested on: Echinochloa crus-galli (ECHCG); assay: Herbicidal pre-emergence action (A), 1280 g/ha; settings: visual grading after ca. 3 weeks vs untreated controls, 100% = plants have died off, 0% = as control plants
Procedure, shortened: (§7)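 Visual percent damage scored about 3 weeks after treatment relative to untreated pots (100% = complete kill, 0% = no effect). Compounds, as wettable powder or emulsifiable concentrate plus 0.5% additive in 600 l water/ha, were applied to the soil surface over freshly sown seeds in sandy loam, greenhouse-grown.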

Veronica persica (VERPE) [10] = assay: Herbicidal pre-emergence action (A), 1280 g/ha; settings: visual grading after ca. 3 weeks vs untreated controls
Procedure, shortened: as §7

[11] = tested on: Kochia scoparia (KCHSC; Bassia scoparia); assay: Herbicidal pre-emergence action (A), 1280 g/ha; settings: visual grading after ca. 3 weeks vs untreated controls
Procedure, shortened: as §7

Stellaria media (STEME) [12] = assay: Herbicidal pre-emergence action (A), 1280 g/ha; settings: visual grading after ca. 3 weeks vs untreated controls
Procedure, shortened: as §7

[13] = tested on: Matricaria inodora (MATIN); assay: Herbicidal pre-emergence action (A), 1280 g/ha; settings: visual grading after ca. 3 weeks vs untreated controls
Procedure, shortened: as §7

Poa annua (POAAN) [14] = assay: Herbicidal pre-emergence action (A), 1280 g/ha; settings: visual grading after ca. 3 weeks vs untreated controls, 100% = plants have died off, 0% = as control plants
Procedure, shortened: as §7

Lolium rigidum (LOLRI) [15] = assay: Herbicidal pre-emergence action (A), 1280 g/ha; settings: visual grading after ca. 3 weeks vs untreated controls, 100% = plants have died off, 0% = as control plants
Procedure, shortened: as §7

[16] = tested on: Echinochloa crus-galli (ECHCG); assay: Herbicidal post-emergence action (B), 1280 g/ha; settings: rated visually after about 3 weeks vs untreated controls
Procedure, shortened: (§8)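 Compounds formulated as wettable powder or emulsion concentrate, with 0.5% additive, sprayed at 600 l/ha onto one-leaf-stage plants grown in sandy loam for 2 to 3 weeks. Damage rated visually against untreated plants roughly 3 weeks later; 0% = like control, 100% = plants died.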

Veronica persica (VERPE) [17] = assay: Herbicidal post-emergence action (B), 1280 g/ha
Procedure, shortened: as §8

[18] = tested on: Kochia scoparia (KCHSC; Bassia scoparia); assay: Herbicidal post-emergence action (B), 1280 g/ha
Procedure, shortened: as §8

[19] = tested on: Amaranthus retroflexus (AMARE); assay: Herbicidal post-emergence action (B), 1280 g/ha; settings: rated visually after about 3 weeks vs untreated controls
Procedure, shortened: as §8

Setaria viridis (SETVI) [20] = assay: Herbicidal post-emergence action (B), 1280 g/ha; settings: rated visually after about 3 weeks vs untreated controls
Procedure, shortened: as §8

[21] = tested on: Amaranthus retroflexus (AMARE); assay: Herbicidal pre-emergence action (A), 1280 g/ha; settings: visual grading after ca. 3 weeks vs untreated controls
Procedure, shortened: as §7

Setaria viridis (SETVI) [22] = assay: Herbicidal pre-emergence action (A), 1280 g/ha; settings: visual grading after ca. 3 weeks vs untreated controls
Procedure, shortened: as §7

[23] = tested on: Matricaria inodora (MATIN); assay: Herbicidal post-emergence action (B), 1280 g/ha; settings: rated visually after about 3 weeks vs untreated controls
Procedure, shortened: as §8

Poa annua (POAAN) [24] = assay: Herbicidal post-emergence action (B), 1280 g/ha; settings: rated visually after about 3 weeks vs untreated controls
Procedure, shortened: as §8

[25] = tested on: Alopecurus myosuroides (ALOMY); assay: Herbicidal pre-emergence action (A), 1280 g/ha; settings: visual grading after ca. 3 weeks vs untreated controls, 100% = plants have died off, 0% = as control plants
Procedure, shortened: as §7

[26] = tested on: Digitaria sanguinalis (DIGSA); assay: Herbicidal pre-emergence action (A), 1280 g/ha; settings: visual grading after ca. 3 weeks vs untreated controls, 100% = plants have died off, 0% = as control plants
Procedure, shortened: as §7

[27] = tested on: Digitaria sanguinalis (DIGSA); assay: Herbicidal post-emergence action (B), 1280 g/ha; settings: rated visually after about 3 weeks vs untreated controls
Procedure, shortened: as §8

Stellaria media (STEME) [28] = assay: Herbicidal post-emergence action (B), 1280 g/ha
Procedure, shortened: as §8

[29] = tested on: Alopecurus myosuroides (ALOMY); assay: Herbicidal post-emergence action (D), 320 g/ha; settings: ca. 3 weeks
From the text: as §1, §2, §3

[30] = tested on: Abutilon theophrasti (ABUTH); assay: Herbicidal post-emergence action (B), 1280 g/ha; settings: rated visually after about 3 weeks vs untreated controls
Procedure, shortened: as §8

[31] = tested on: Alopecurus myosuroides (ALOMY); assay: Herbicidal post-emergence action (B), 1280 g/ha; settings: rated visually after about 3 weeks vs untreated controls
Procedure, shortened: as §8

[32] = tested on: Amaranthus retroflexus (AMARE); assay: Herbicidal post-emergence action (D), 320 g/ha; settings: ca. 3 weeks
From the text: as §1, §2, §3

Veronica persica (VERPE) [33] = assay: Herbicidal pre-emergence action (C), 320 g/ha; settings: ca. 3 weeks
From the text: as §1, §4, §5, §6

[34] = tested on: Amaranthus retroflexus (AMARE); assay: Herbicidal pre-emergence action (C), 320 g/ha; settings: ca. 3 weeks
From the text: as §1, §4, §5, §6

| Structure (SMILES) | herbicidal effect ECHCG [5] [%] | herbicidal effect ALOMY [6] [%] | ECHCG, herbicidal effect in percent (%) [9] [%] | herbicidal effect VERPE (Veronica persica (VERPE) [10]) [%] | herbicidal effect KCHSC [11] [%] | herbicidal effect STEME (Stellaria media (STEME) [12]) [%] | herbicidal effect MATIN [13] [%] | POAAN, herbicidal effect in percent (%) (Poa annua (POAAN) [14]) | LOLRI, herbicidal effect in percent (%) (Lolium rigidum (LOLRI) [15]) | herbicidal activity ECHCG [16] [%] | herbicidal effect VERPE (Veronica persica (VERPE) [17]) [%] | herbicidal effect KCHSC [18] [%] | herbicidal activity AMARE [19] [%] | herbicidal effect AMARE [21] [%] | herbicidal effect SETVI (Setaria viridis (SETVI) [22]) [%] | herbicidal activity MATIN [23] [%] | herbicidal activity POAAN (Poa annua (POAAN) [24]) [%] | ALOMY, herbicidal effect in percent (%) [25] [%] | DIGSA, herbicidal effect in percent (%) [26] [%] | herbicidal effect STEME (Stellaria media (STEME) [28]) [%] | also measured |
| --- | --- | --- | --- | --- | --- | --- | --- | --- | --- | --- | --- | --- | --- | --- | --- | --- | --- | --- | --- | --- | --- |
| CCCc1cc2scnc2nc1-c1ccccc1F [Example I-185] | 100 | 90 | 100 | 90 | 90 | 90 | 90 | 100 | 100 | 90 | 90 | 90 | 100 | – | – | – | – | – | – | – | herbicidal effect ECHCG [1]: 80%; herbicidal effect VERPE (Veronica persica (VERPE) [2]): 90%; herbicidal effect POLCO [3]: 80%; herbicidal effect SETVI (Setaria viridis (SETVI) [4]): 90%; herbicidal effect SETVI (Setaria viridis (SETVI) [7]): 100%; herbicidal effect LOLRI (Lolium rigidum (LOLRI) [8]): 100%; herbicidal activity SETVI (Setaria viridis (SETVI) [20]): 90% |
| Cc1cc2sc(S(C)(=O)=O)nc2nc1-c1ccccc1F [Example I-021] | – | – | – | 90 | 90 | 100 | – | 100 | 100 | – | – | 100 | 90 | 100 | 100 | 100 | 100 | – | – | – | – |
| CCc1cc2scnc2nc1-c1ccccc1OC [Example I-111] | – | – | 100 | 90 | 100 | 100 | 90 | 100 | 100 | – | 90 | 100 | 100 | 90 | 100 | – | 100 | 90 | 100 | 90 | herbicidal effect VERPE (Veronica persica (VERPE) [2]): 80%; herbicidal activity DIGSA [27]: 100% |
| Fc1cccc(-c2ccc3scnc3n2)c1 [Example I-118] | – | – | – | – | – | 100 | 90 | 100 | 100 | – | 90 | – | 90 | 90 | 100 | 100 | 100 | – | 100 | – | – |
| Clc1cc2scnc2nc1-c1ccsc1 [Example I-191] | 100 | 90 | 100 | 100 | 90 | 100 | 90 | 100 | 100 | 100 | 100 | 90 | – | 90 | 100 | 90 | 100 | 100 | – | 90 | herbicidal effect ECHCG [1]: 90%; herbicidal effect ALOMY [29]: 80%; herbicidal activity ABUTH [30]: 90%; herbicidal activity ALOMY [31]: 100% |
| CCc1cc2sc([S+](C)[O-])nc2nc1-c1ccccc1C (centres unmarked) [Example I-022] | – | – | – | – | – | 90 | – | – | – | – | – | 90 | 100 | – | – | 90 | – | – | – | – | – |
| CCc1cc2sc(S)nc2nc1-c1ccccc1C [Example I-158] | – | – | 100 | – | – | 90 | – | – | – | – | 90 | – | 90 | 90 | – | 100 | 100 | – | – | – | – |
| C=Cc1cc2scnc2nc1-c1ccccc1F [Example I-072] | 100 | 100 | 100 | 100 | 100 | 90 | 100 | 100 | 100 | 90 | 100 | 90 | 100 | 100 | 100 | 90 | 100 | 100 | 100 | 90 | herbicidal effect POLCO [3]: 80%; herbicidal effect AMARE [32]: 80%; herbicidal effect VERPE (Veronica persica (VERPE) [33]): 80%; herbicidal effect AMARE [34]: 80%; herbicidal effect SETVI (Setaria viridis (SETVI) [7]): 100%; herbicidal effect LOLRI (Lolium rigidum (LOLRI) [8]): 100%; herbicidal activity ALOMY [31]: 100%; herbicidal activity DIGSA [27]: 90%; herbicidal activity SETVI (Setaria viridis (SETVI) [20]): 90% |
| COc1ccccc1-c1nc2nc(SC)sc2cc1C [Example I-007] | – | – | – | – | – | – | – | 90 | – | – | 90 | 90 | 100 | – | 100 | 100 | – | – | – | 100 | herbicidal activity ABUTH [30]: 90%; herbicidal activity DIGSA [27]: 100% |
